Assay results published in patent publication US5089498A, “Substituted 4-aminoquinoline derivatives as gastric acid secretion inhibitors” (SmithKline Beckman Intercredit B.V., priority 1988, dated 1992).

Test system: pentagastrin stimulated gastric acid secretion
Assay: Rat Lumen Perfused Stomach (pentagastrin stimulated gastric acid secretion)
Assay type: in vivo
Details: i.v., 10 μmole/kg
Excerpt: B. Rat Lumen Perfused Stomach (pentagastrin stimulated gastric acid secretion).
Using a modification of the procedure described by Ghosh & Schild (Br. J. Pharmacology, 13, 54, 1958), the compounds of the following examples were found on i.v. administration at a concentration of 10 μmole/kg to cause an inhibition of pentagastrin stimulated gastric acid secretion a follows: […]

Compound | % inhibition of pentagastrin stimulated gastric acid secretion
CCCC(=O)c1cnc2c(C(=O)OC)cccc2c1Nc1ccccc1C [Example 1, methyl 3-butyryl-4-(2-methylphenylamino)quinoline-8-carboxylate] | 42%
CCCC(=O)c1cnc2c(C(N)=O)cccc2c1Nc1ccccc1C [Example 2, 3-butyryl-4-(2-methylphenylamino)quinoline-8-carboxamide] | 39%
